Experimental data taken from ChEMBL document CHEMBL2021758, “Synthesis of indolizidinone analogues of cytotoxic alkaloids: monocyclic precursors are also active” (2012).
Active and inactive are the calls of the source. No cut-off for these calls is given here.

Legend:
SH-SY5Y [1] = experiment: Cytotoxicity against human SH-SY5Y cells assessed as reduction of cell viability at 10 uM after 24 hrs; type: functional, cell-based
SH-SY5Y [2] = experiment: Cytotoxicity against human SH-SY5Y cells assessed as reduction of cell viability at 30 uM after 48 hrs; type: functional
SH-SY5Y [3] = experiment: Cytotoxicity against human SH-SY5Y cells assessed as reduction of cell viability at 20 uM after 24 hrs; type: functional, cell-based
MCF7 [4] = experiment: Cytotoxicity against human MCF7 cells assessed as reduction of cell viability at 10 uM after 24 hrs; type: functional, cell-based
MCF7 [5] = experiment: Cytotoxicity against human MCF7 cells assessed as reduction of cell viability at 20 uM after 24 hrs; type: functional, cell-based
MCF7 [6] = experiment: Cytotoxicity against human MCF7 cells assessed as reduction of cell viability at 30 uM after 48 hrs; type: functional
MCF7 [7] = experiment: Induction of morphological changes in human MCF7 cells assessed as cytoplasm vacuolization at 30 uM after 6 hrs; type: functional, cell-based
SH-SY5Y [8] = experiment: Induction of morphological changes in human SH-SY5Y cells assessed as cell swelling at 30 uM after 6 hrs; type: functional, cell-based
MCF7 [9] = experiment: Induction of morphological changes in human MCF7 cells assessed as cell swelling at 30 uM after 6 hrs; type: functional, cell-based
MCF7 [10] = experiment: Induction of morphological changes in human MCF7 cells at 30 uM after 24 hrs; type: functional, cell-based
SH-SY5Y [11] = experiment: Induction of morphological changes in human SH-SY5Y cells assessed as cytoplasm vacuolization at 30 uM after 6 hrs; type: functional, cell-based
MCF7 [12] = experiment: Induction of morphological changes in human MCF7 cells assessed as increase in refringency of the nucleoli at 30 uM after 6 hrs; type: functional, cell-based
MCF7 [13] = experiment: Induction of morphological changes in human MCF7 cells assessed as increase in volume of nucleus at 30 uM after 6 hrs; type: functional, cell-based
SH-SY5Y [14] = experiment: Induction of morphological changes in human SH-SY5Y cells assessed as increase in refringency of the nucleoli at 30 uM after 6 hrs; type: functional, cell-based
SH-SY5Y [15] = experiment: Induction of morphological changes in human SH-SY5Y cells assessed as increase in volume of nucleus at 30 uM after 6 hrs; type: functional, cell-based
SH-SY5Y [16] = experiment: Induction of morphological changes in human SH-SY5Y cells assessed as change in perimeter of cell at 30 uM after 48 hrs; type: functional, cell-based
MCF7 [17] = experiment: Induction of morphological changes in human MCF7 cells assessed as change in volume of cell at 30 uM after 48 hrs; type: functional, cell-based
SH-SY5Y [18] = experiment: Induction of morphological changes in human SH-SY5Y cells assessed as change in volume of cell at 30 uM after 48 hrs; type: functional, cell-based
MCF7 [19] = experiment: Induction of morphological changes in human MCF7 cells assessed as change in cell shape at 30 uM after 48 hrs; type: functional, cell-based
MCF7 [20] = experiment: Induction of morphological changes in human MCF7 cells assessed as change in perimeter of cell at 30 uM after 48 hrs; type: functional, cell-based
SH-SY5Y [21] = experiment: Induction of morphological changes in human SH-SY5Y cells assessed as change in cell shape at 30 uM after 48 hrs; type: functional, cell-based

| Compound | Activity (SH-SY5Y [1]) | Activity (SH-SY5Y [2]) | Activity (SH-SY5Y [3]) | Activity (MCF7 [4]) | Activity (MCF7 [5]) | Activity (MCF7 [6]) | further results |
| --- | --- | --- | --- | --- | --- | --- | --- |
| O=C1C(c2ccccc2)=C(c2ccccc2)C[C@@H]2C[C@@H](O)CN12 | Active | Active | Active | Active | Active | Active | – |
| O=C(C[C@@H]1C[C@@H](O)CN1C(=O)Cc1ccccc1)c1ccc(-c2ccccc2)cc1 | Active | – | – | Active | – | – | – |
| COc1ccc(C2=C(c3ccccc3)C(=O)N3C[C@H](O)C[C@H]3C2)cc1 | Active | Active | Active | Active | Active | Active | – |
| O=C(C[C@H]1C[C@@H](O)CN1C(=O)Cc1ccccc1)c1ccc(-c2ccccc2)cc1 | Active | – | – | Active | – | – | Activity (MCF7 [7]): Active; Activity (SH-SY5Y [8]): Active; Activity (MCF7 [9]): Active; Activity (MCF7 [10]): Active; Activity (SH-SY5Y [11]): Active; Activity (MCF7 [12]): Active; Activity (MCF7 [13]): Active; Activity (SH-SY5Y [14]): Active; Activity (SH-SY5Y [15]): Active |
| COc1ccc(C2=C(c3ccccc3)C(=O)N3C[C@H](O)C[C@@H]3C2)cc1 | Active | – | Active | Active | Active | Active | – |
| Cn1cccc1C1=C(c2ccccc2)C(=O)N2C[C@H](O)C[C@@H]2C1 | Active | Active | Active | Active | Active | Active | – |
| Cn1cccc1C1=C(c2ccccc2)C(=O)N2C[C@H](O)C[C@H]2C1 | Active | Active | Active | Active | Active | Active | – |
| O=C1C(c2ccccc2)=C(c2ccccc2)C[C@H]2C[C@@H](O)CN12 | Active | Active | Active | Active | Active | Active | – |
| O=C1C(c2ccccc2)=C(c2ccc(-c3ccccc3)cc2)C[C@@H]2C[C@@H](O)CN12 | Active | >70% | Active | Active | Active | >70% | – |
| O=C1C(c2ccccc2)=C(c2ccc(-c3ccccc3)cc2)C[C@H]2C[C@@H](O)CN12 | Active | >70% | Active | Active | Active | >70% | Activity (SH-SY5Y [16]): Active; Activity (MCF7 [17]): Active; Activity (SH-SY5Y [18]): Active; Activity (MCF7 [19]): Active; Activity (MCF7 [20]): Active; Activity (SH-SY5Y [21]): Active |
| O=C1C(c2ccccc2)=C(c2ccc(Br)cc2)C[C@@H]2C[C@@H](O)CN12 | Active | Active | Active | Active | Active | Active | – |
| O=C1C(c2ccccc2)=C(c2ccc(Br)cc2)C[C@H]2C[C@@H](O)CN12 | Active | – | Active | Active | Active | Active | – |
